These results are taken from patent US8076487B2, “Pyridone derivative and herbicide” (Kumiai Chemical Industry Co., Ltd., priority 2006, dated 2011).

The structures appear in SMILES notation.

Holding throughout (type): in vivo
Assay [1] concerns Japanese bulrush (Scirpus juncoides Roxb.). The assay is described as follows: Test Example 1: herbicidal effect by soil application to paddy field. The note with it: paddy field soil application; active ingredient 1,000 g per 1 hectare; wettable powder added dropwise to water surface the day after sowing; examined on the 21st day after application. The method in brief:
(§1)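 Under greenhouse conditions, seeds sown on puddled paddy soil in 100 cm2 pots under 3 cm of standing water received the test compound; injury was assessed with a standard scoring scheme three weeks (day 21) after treatment.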

Assay [2] relates to early watergrass (Echinochloa oryzicola Vasing). The assay is described as above. To be noted: paddy field soil application; active ingredient 1,000 g per 1 hectare; wettable powder added dropwise to water surface the day after sowing; examined on the 21st day after application. The procedure, abridged: as §1
The test system of assay [3] is heartshape false pickerelweed (Monochoria vaginalis (Burm.f.) C.Presl). The assay is described as above. The note with it: paddy field soil application; active ingredient 1,000 g per 1 hectare; wettable powder added dropwise to water surface the day after sowing; examined on the 21st day after application. The method in brief:
as §1

Assay [4] concerns barnyardgrass (Echinochloa crus-galli (L.) P. Beauv. var. crus-galli). The assay is described as follows: Test Example 3: herbicidal effect by application to upland field (foliage treatment). To be noted: foliage treatment, 1,000 g active ingredient per 1 hectare, 14th day after application, greenhouse. Here is the method: (§2) [table] Test Example 3 Test on Herbicidal Effect by Application to Upland Field In a 80 cm2 plastic pot, field soil was filled. Seeds of barnyardgrass (Echinochloa crus-galli (L.) P. Beauv. var. crus-galli), green foxtail (Setaria viridis (L.) P. Beauv.), velvetleaf (Abutilon theophrasti medicus), and slender amaranth (Amaranthus viridis L.) were sown and allowed to grow for two weeks in a greenhouse. Thereafter, the wettable powder prepared according to Formulation Example 1 was diluted in water and a 1,000 liter equivalent amount per 1 hectare so that the active ingredient becomes 1,000 g per 1 hectare was sprayed using a small sprayer from a top of the plants through its entire body for foliage treatment. Then, on the 14th day after the application to the plants grew in a greenhouse, the herbicidal effect was examined in accordance with a standard shown in Table 34.

For assay [5], the system named is green foxtail (Setaria viridis (L.) P. Beauv.). The assay is described as above. To be noted: foliage treatment, 1,000 g active ingredient per 1 hectare, 14th day after application, greenhouse. Here is the method:
as §2

For assay [6], the system named is slender amaranth (Amaranthus viridis L.). The description is as above. The note with it: foliage treatment, 1,000 g active ingredient per 1 hectare, 14th day after application, greenhouse. As to the method: as §2
Assay [7] deals with velvetleaf (Abutilon theophrasti medicus). The description is as above. The note with it: foliage treatment, 1,000 g active ingredient per 1 hectare, 14th day after application, greenhouse. Here is the method:
as §2

For `O=C1CCCC(O)=C1C(=O)c1ccc(C(F)(F)F)n(CC2OCCO2)c1=O` [I-138], the “herbicidal effect, Scirpus juncoides Roxb.” value in assay [1] was 5 (90% or more of herbicidal effect and crop phytotoxicity). Also, the “herbicidal effect, Echinochloa oryzicola Vasing” value in assay [2] was 5 (90% or more of herbicidal effect and crop phytotoxicity). In addition, the “herbicidal effect, Monochoria vaginalis (Burm. f.) C. Presl” value (“herbicidal effect, Monochoria vaginalis” below) in assay [3] is 5 (90% or more of herbicidal effect and crop phytotoxicity). The “herbicidal effect, Barnyardgrass” value in assay [4] is 5 (90% or more of herbicidal effect and crop phytotoxicity). In assay [5], the “herbicidal effect, Green Foxtail” value is 4 (70 to less than 90% of herbicidal effect and crop phytotoxicity). For the same compound, the “herbicidal effect, Slender Amaranth” value in assay [6] is 5 (90% or more of herbicidal effect and crop phytotoxicity). Further, the “herbicidal effect, Velvetleaf” value in assay [7] is 5 (90% or more of herbicidal effect and crop phytotoxicity).
For `CNn1c(C(F)(F)F)ccc(C(=O)C2=C(O)CCCC2=O)c1=O` [I-157], in assay [1], the “herbicidal effect, Scirpus juncoides Roxb.” value was 5 (90% or more of herbicidal effect and crop phytotoxicity). The “herbicidal effect, Echinochloa oryzicola Vasing” value in assay [2] was 5 (90% or more of herbicidal effect and crop phytotoxicity). For the same compound, the “herbicidal effect, Monochoria vaginalis” value in assay [3] is 5 (90% or more of herbicidal effect and crop phytotoxicity). For the same compound, the “herbicidal effect, Barnyardgrass” value in assay [4] is 5 (90% or more of herbicidal effect and crop phytotoxicity). Also, in assay [5], the “herbicidal effect, Green Foxtail” value is 5 (90% or more of herbicidal effect and crop phytotoxicity). Also, the “herbicidal effect, Slender Amaranth” value in assay [6] was 5 (90% or more of herbicidal effect and crop phytotoxicity). Also, the “herbicidal effect, Velvetleaf” value in assay [7] is 5 (90% or more of herbicidal effect and crop phytotoxicity).
For the compound `CC(C)Nn1c(C(F)(F)F)ccc(C(=O)C2=C(O)CCCC2=O)c1=O` [I-160], in assay [1], the “herbicidal effect, Scirpus juncoides Roxb.” value was 5 (90% or more of herbicidal effect and crop phytotoxicity). In addition, in assay [2], the “herbicidal effect, Echinochloa oryzicola Vasing” value is 5 (90% or more of herbicidal effect and crop phytotoxicity). Moreover, the “herbicidal effect, Monochoria vaginalis” value in assay [3] is 5 (90% or more of herbicidal effect and crop phytotoxicity). In assay [4], the “herbicidal effect, Barnyardgrass” value is 4 (70 to less than 90% of herbicidal effect and crop phytotoxicity). In assay [5], the “herbicidal effect, Green Foxtail” value was 3 (50 to less than 70% of herbicidal effect and crop phytotoxicity). For the same compound, the “herbicidal effect, Slender Amaranth” value in assay [6] was 5 (90% or more of herbicidal effect and crop phytotoxicity). In assay [7], the “herbicidal effect, Velvetleaf” value was 5 (90% or more of herbicidal effect and crop phytotoxicity).
As for `CCC(C)Nn1c(C(F)(F)F)ccc(C(=O)C2=C(O)CCCC2=O)c1=O` (centres unmarked) [I-163], the “herbicidal effect, Scirpus juncoides Roxb.” value in assay [1] is 5 (90% or more of herbicidal effect and crop phytotoxicity). In assay [2], the “herbicidal effect, Echinochloa oryzicola Vasing” value is 5 (90% or more of herbicidal effect and crop phytotoxicity). The “herbicidal effect, Monochoria vaginalis” value in assay [3] was 5 (90% or more of herbicidal effect and crop phytotoxicity). Besides, in assay [4], the “herbicidal effect, Barnyardgrass” value was 5 (90% or more of herbicidal effect and crop phytotoxicity). Moreover, the “herbicidal effect, Green Foxtail” value in assay [5] was 5 (90% or more of herbicidal effect and crop phytotoxicity). Moreover, the “herbicidal effect, Slender Amaranth” value in assay [6] is 5 (90% or more of herbicidal effect and crop phytotoxicity). Moreover, the “herbicidal effect, Velvetleaf” value in assay [7] is 5 (90% or more of herbicidal effect and crop phytotoxicity).
`CCN(CC)n1c(C(F)(F)F)ccc(C(=O)C2=C(O)CCCC2=O)c1=O` [I-172]: the “herbicidal effect, Scirpus juncoides Roxb.” value in assay [1] was 5 (90% or more of herbicidal effect and crop phytotoxicity). Moreover, the “herbicidal effect, Echinochloa oryzicola Vasing” value in assay [2] was 5 (90% or more of herbicidal effect and crop phytotoxicity). Further, in assay [3], the “herbicidal effect, Monochoria vaginalis” value was 5 (90% or more of herbicidal effect and crop phytotoxicity). For the same compound, the “herbicidal effect, Barnyardgrass” value in assay [4] is 5 (90% or more of herbicidal effect and crop phytotoxicity). For the same compound, the “herbicidal effect, Green Foxtail” value in assay [5] is 5 (90% or more of herbicidal effect and crop phytotoxicity). Besides, the “herbicidal effect, Slender Amaranth” value in assay [6] was 5 (90% or more of herbicidal effect and crop phytotoxicity). Besides, in assay [7], the “herbicidal effect, Velvetleaf” value was 5 (90% or more of herbicidal effect and crop phytotoxicity).
Take `CCCN(CCC)n1c(C(F)(F)F)ccc(C(=O)C2=C(O)CCCC2=O)c1=O` [I-173]: the “herbicidal effect, Scirpus juncoides Roxb.” value in assay [1] was 5 (90% or more of herbicidal effect and crop phytotoxicity). For the same compound, the “herbicidal effect, Echinochloa oryzicola Vasing” value in assay [2] was 5 (90% or more of herbicidal effect and crop phytotoxicity). Moreover, in assay [3], the “herbicidal effect, Monochoria vaginalis” value is 5 (90% or more of herbicidal effect and crop phytotoxicity). Also, the “herbicidal effect, Barnyardgrass” value in assay [4] was 4 (70 to less than 90% of herbicidal effect and crop phytotoxicity). Moreover, the “herbicidal effect, Green Foxtail” value in assay [5] is 5 (90% or more of herbicidal effect and crop phytotoxicity). The “herbicidal effect, Slender Amaranth” value in assay [6] was 4 (70 to less than 90% of herbicidal effect and crop phytotoxicity). For the same compound, the “herbicidal effect, Velvetleaf” value in assay [7] was 5 (90% or more of herbicidal effect and crop phytotoxicity).
Regarding `COCCN(C)n1c(C(F)(F)F)ccc(C(=O)C2=C(O)CCCC2=O)c1=O` [I-176], the “herbicidal effect, Scirpus juncoides Roxb.” value in assay [1] was 5 (90% or more of herbicidal effect and crop phytotoxicity). Moreover, the “herbicidal effect, Echinochloa oryzicola Vasing” value in assay [2] is 5 (90% or more of herbicidal effect and crop phytotoxicity). Also, the “herbicidal effect, Monochoria vaginalis” value in assay [3] was 5 (90% or more of herbicidal effect and crop phytotoxicity). Moreover, the “herbicidal effect, Barnyardgrass” value in assay [4] is 5 (90% or more of herbicidal effect and crop phytotoxicity). In addition, the “herbicidal effect, Green Foxtail” value in assay [5] was 5 (90% or more of herbicidal effect and crop phytotoxicity). Further, the “herbicidal effect, Slender Amaranth” value in assay [6] was 5 (90% or more of herbicidal effect and crop phytotoxicity). Moreover, the “herbicidal effect, Velvetleaf” value in assay [7] is 5 (90% or more of herbicidal effect and crop phytotoxicity).
As to `COC(=O)Nn1c(C(F)(F)F)ccc(C(=O)C2=C(O)CCCC2=O)c1=O` [I-189], the “herbicidal effect, Scirpus juncoides Roxb.” value in assay [1] was 5 (90% or more of herbicidal effect and crop phytotoxicity). For the same compound, in assay [2], the “herbicidal effect, Echinochloa oryzicola Vasing” value was 5 (90% or more of herbicidal effect and crop phytotoxicity). Besides, the “herbicidal effect, Monochoria vaginalis” value in assay [3] is 5 (90% or more of herbicidal effect and crop phytotoxicity). Besides, the “herbicidal effect, Barnyardgrass” value in assay [4] was 4 (70 to less than 90% of herbicidal effect and crop phytotoxicity). In assay [5], the “herbicidal effect, Green Foxtail” value is 4 (70 to less than 90% of herbicidal effect and crop phytotoxicity). The “herbicidal effect, Slender Amaranth” value in assay [6] was 5 (90% or more of herbicidal effect and crop phytotoxicity). The “herbicidal effect, Velvetleaf” value in assay [7] was 5 (90% or more of herbicidal effect and crop phytotoxicity).
For `CCN(C(=O)OC(C)(C)C)n1c(C(F)(F)F)ccc(C(=O)C2=C(O)CCCC2=O)c1=O` [I-195], the “herbicidal effect, Scirpus juncoides Roxb.” value in assay [1] is 5 (90% or more of herbicidal effect and crop phytotoxicity). Further, in assay [2], the “herbicidal effect, Echinochloa oryzicola Vasing” value is 5 (90% or more of herbicidal effect and crop phytotoxicity). In addition, the “herbicidal effect, Monochoria vaginalis” value in assay [3] was 5 (90% or more of herbicidal effect and crop phytotoxicity). In assay [4], the “herbicidal effect, Barnyardgrass” value is 5 (90% or more of herbicidal effect and crop phytotoxicity). Moreover, in assay [5], the “herbicidal effect, Green Foxtail” value is 4 (70 to less than 90% of herbicidal effect and crop phytotoxicity). Also, in assay [6], the “herbicidal effect, Slender Amaranth” value is 3 (50 to less than 70% of herbicidal effect and crop phytotoxicity). In assay [7], the “herbicidal effect, Velvetleaf” value was 5 (90% or more of herbicidal effect and crop phytotoxicity).
Consider `CCn1c(C(F)F)ccc(C(=O)C2=C(O)CCCC2=O)c1=O` [I-222], for which, in assay [1], the “herbicidal effect, Scirpus juncoides Roxb.” value is 5 (90% or more of herbicidal effect and crop phytotoxicity). Also, the “herbicidal effect, Echinochloa oryzicola Vasing” value in assay [2] is 5 (90% or more of herbicidal effect and crop phytotoxicity). The “herbicidal effect, Monochoria vaginalis” value in assay [3] is 5 (90% or more of herbicidal effect and crop phytotoxicity). Further, the “herbicidal effect, Barnyardgrass” value in assay [4] was 5 (90% or more of herbicidal effect and crop phytotoxicity). Besides, the “herbicidal effect, Green Foxtail” value in assay [5] is 4 (70 to less than 90% of herbicidal effect and crop phytotoxicity). The “herbicidal effect, Slender Amaranth” value in assay [6] is 5 (90% or more of herbicidal effect and crop phytotoxicity). Further, the “herbicidal effect, Velvetleaf” value in assay [7] is 5 (90% or more of herbicidal effect and crop phytotoxicity).
With `Cc1ccc(C(=O)C2=C(O)CCCC2=O)c(=O)n1-c1ccccc1` [I-229], in assay [1], the “herbicidal effect, Scirpus juncoides Roxb.” value is 4 (70 to less than 90% of herbicidal effect and crop phytotoxicity). In addition, the “herbicidal effect, Echinochloa oryzicola Vasing” value in assay [2] was 4 (70 to less than 90% of herbicidal effect and crop phytotoxicity). Besides, in assay [3], the “herbicidal effect, Monochoria vaginalis” value was 5 (90% or more of herbicidal effect and crop phytotoxicity). Besides, in assay [4], the “herbicidal effect, Barnyardgrass” value was 4 (70 to less than 90% of herbicidal effect and crop phytotoxicity). For the same compound, the “herbicidal effect, Green Foxtail” value in assay [5] is 4 (70 to less than 90% of herbicidal effect and crop phytotoxicity). The “herbicidal effect, Slender Amaranth” value in assay [6] is 5 (90% or more of herbicidal effect and crop phytotoxicity). The “herbicidal effect, Velvetleaf” value in assay [7] is 5 (90% or more of herbicidal effect and crop phytotoxicity).
